{"source": "paper PMC5862592", "about": "“CDK8/19 inhibition induces premature G1/S transition and ATR-dependent cell death in prostate cancer cells” (Oncotarget, 2018)", "assay_in_all_cases": "biochemical", "set-up_in_all_cases": "KINOMEscan active site-directed competition binding assay (DiscoveRx), 456 kinases, per cent of control at 300 nM", "settings_in_all_cases": "read-out: Percent of Control (%)", "key": {"CDC2L2": {"target": "T1, CDC2L2 (Homo sapiens, UniProt Q9UQ88)", "T1 construct": "gene CDK11A", "method_in_brief": "(§1)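 At 300 nmol/L, compounds were assessed for kinase binding in an active site-directed competition format covering 456 kinases.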"}, "HIPK3": {"target": "HIPK3 (Homo sapiens, UniProt Q9H422)", "method_in_brief": "as §1"}, "p38-delta": {"target": "T2, p38-delta (Homo sapiens, UniProt O15264)", "T2 construct": "gene MAPK13", "method_in_brief": "as §1"}, "CSNK2A2": {"target": "CSNK2A2 (Homo sapiens, UniProt P19784)", "method_in_brief": "as §1"}, "PFPK5(P.falciparum)": {"target": "T3, PFPK5(P.falciparum) (Plasmodium falciparum, UniProt P61075)", "T3 construct": "gene MAL13P1.279", "T3 sequence (P61075 whole entry)": "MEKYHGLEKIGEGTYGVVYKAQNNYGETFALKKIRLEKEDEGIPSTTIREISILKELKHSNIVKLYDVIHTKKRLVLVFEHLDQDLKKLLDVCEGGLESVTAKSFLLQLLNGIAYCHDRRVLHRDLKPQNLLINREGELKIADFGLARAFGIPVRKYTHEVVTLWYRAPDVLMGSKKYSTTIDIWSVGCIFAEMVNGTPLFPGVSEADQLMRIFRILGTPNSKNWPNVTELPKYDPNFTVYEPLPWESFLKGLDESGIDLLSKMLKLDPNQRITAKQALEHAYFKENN", "method_in_brief": "as §1"}, "DLK": {"target": "T4, DLK (Homo sapiens, UniProt Q12852)", "T4 construct": "gene MAP3K12", "T4 sequence (Q12852 whole entry)": "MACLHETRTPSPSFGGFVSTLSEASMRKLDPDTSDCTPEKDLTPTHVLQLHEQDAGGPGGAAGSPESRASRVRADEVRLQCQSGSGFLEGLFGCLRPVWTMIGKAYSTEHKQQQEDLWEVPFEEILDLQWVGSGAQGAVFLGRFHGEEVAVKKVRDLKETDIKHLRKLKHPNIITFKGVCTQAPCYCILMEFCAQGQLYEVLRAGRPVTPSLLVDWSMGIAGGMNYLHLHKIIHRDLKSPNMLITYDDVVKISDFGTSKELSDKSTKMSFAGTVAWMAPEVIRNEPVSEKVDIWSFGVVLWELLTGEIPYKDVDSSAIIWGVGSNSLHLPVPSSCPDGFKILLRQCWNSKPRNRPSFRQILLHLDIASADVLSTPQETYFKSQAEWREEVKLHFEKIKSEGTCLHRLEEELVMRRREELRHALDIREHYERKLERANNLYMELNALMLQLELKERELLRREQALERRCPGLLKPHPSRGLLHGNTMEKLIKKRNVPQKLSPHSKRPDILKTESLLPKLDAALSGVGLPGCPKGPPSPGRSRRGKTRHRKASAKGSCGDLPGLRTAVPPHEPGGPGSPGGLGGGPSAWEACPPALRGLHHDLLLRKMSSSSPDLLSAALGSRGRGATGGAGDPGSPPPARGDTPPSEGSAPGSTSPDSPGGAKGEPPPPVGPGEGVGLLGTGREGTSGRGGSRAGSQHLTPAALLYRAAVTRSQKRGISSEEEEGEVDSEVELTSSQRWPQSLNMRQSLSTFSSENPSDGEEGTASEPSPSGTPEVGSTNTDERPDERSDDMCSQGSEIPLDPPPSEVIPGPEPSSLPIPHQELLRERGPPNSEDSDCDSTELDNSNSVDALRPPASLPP", "method_in_brief": "as §1"}, "MEK1": {"target": "T5, MEK1 (Homo sapiens, UniProt Q02750)", "T5 construct": "gene MAP2K1", "method_in_brief": "as §1"}, "BUB1": {"target": "BUB1 (Homo sapiens, UniProt O43683)", "method_in_brief": "as §1"}, "SBK1": {"target": "SBK1 (Homo sapiens, UniProt Q52WX2)", "method_in_brief": "as §1"}, "CSNK1E": {"target": "CSNK1E (Homo sapiens, UniProt P49674)", "method_in_brief": "as §1"}, "SgK110": {"target": "T6, SgK110 (Homo sapiens, UniProt P0C264)", "T6 construct": "gene SBK3", "method_in_brief": "as §1"}, "PRKD2": {"target": "PRKD2 (Homo sapiens, UniProt Q9BZL6)", "sequence (Q9BZL6 whole entry)": "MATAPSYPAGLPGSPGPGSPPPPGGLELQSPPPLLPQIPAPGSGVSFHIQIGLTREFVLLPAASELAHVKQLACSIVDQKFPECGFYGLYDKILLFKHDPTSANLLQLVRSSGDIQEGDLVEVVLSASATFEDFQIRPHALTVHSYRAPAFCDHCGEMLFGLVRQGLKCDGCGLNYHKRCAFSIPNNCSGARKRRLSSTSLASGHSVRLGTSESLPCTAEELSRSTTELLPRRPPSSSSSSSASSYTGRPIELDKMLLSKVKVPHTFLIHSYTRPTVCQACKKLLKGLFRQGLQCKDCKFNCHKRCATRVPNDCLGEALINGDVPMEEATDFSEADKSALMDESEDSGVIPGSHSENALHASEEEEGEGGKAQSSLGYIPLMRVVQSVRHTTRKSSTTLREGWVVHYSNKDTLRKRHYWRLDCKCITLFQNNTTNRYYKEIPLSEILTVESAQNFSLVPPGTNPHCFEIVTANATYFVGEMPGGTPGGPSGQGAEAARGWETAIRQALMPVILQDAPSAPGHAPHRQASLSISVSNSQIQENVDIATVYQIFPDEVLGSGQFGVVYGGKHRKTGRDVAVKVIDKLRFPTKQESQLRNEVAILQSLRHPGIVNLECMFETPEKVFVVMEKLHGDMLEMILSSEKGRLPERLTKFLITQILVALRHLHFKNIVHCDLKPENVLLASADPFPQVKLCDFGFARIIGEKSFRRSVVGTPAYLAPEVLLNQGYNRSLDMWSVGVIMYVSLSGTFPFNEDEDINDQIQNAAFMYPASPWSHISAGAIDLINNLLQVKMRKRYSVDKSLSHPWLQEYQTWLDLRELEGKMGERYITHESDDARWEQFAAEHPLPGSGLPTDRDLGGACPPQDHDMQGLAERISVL", "method_in_brief": "as §1"}, "LTK": {"target": "LTK (Homo sapiens, UniProt P29376)", "sequence (P29376 whole entry)": "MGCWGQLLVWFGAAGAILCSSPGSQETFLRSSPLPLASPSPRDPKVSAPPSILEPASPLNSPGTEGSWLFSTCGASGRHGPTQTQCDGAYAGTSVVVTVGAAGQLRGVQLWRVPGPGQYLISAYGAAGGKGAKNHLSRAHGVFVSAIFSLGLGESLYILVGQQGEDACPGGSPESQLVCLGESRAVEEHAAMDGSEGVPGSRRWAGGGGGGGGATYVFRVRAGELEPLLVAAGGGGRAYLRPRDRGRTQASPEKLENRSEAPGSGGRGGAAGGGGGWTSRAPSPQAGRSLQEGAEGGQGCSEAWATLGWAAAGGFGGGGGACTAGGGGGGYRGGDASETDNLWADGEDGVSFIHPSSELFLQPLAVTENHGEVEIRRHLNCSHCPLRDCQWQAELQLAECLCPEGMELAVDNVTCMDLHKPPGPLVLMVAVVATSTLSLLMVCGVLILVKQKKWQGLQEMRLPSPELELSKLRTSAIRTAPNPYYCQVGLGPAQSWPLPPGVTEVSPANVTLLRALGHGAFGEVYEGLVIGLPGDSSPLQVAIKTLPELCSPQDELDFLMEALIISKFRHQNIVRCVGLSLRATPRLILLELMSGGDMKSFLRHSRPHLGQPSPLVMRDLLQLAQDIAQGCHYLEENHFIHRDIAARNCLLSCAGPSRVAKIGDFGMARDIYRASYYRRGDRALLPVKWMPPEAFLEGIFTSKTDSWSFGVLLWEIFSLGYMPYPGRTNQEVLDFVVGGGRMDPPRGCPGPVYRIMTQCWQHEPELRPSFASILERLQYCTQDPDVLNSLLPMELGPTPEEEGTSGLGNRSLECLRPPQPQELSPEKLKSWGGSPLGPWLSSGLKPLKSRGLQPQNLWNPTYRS", "method_in_brief": "as §1"}, "ACVR2A": {"target": "ACVR2A (Homo sapiens, UniProt P27037)", "sequence (P27037 whole entry)": "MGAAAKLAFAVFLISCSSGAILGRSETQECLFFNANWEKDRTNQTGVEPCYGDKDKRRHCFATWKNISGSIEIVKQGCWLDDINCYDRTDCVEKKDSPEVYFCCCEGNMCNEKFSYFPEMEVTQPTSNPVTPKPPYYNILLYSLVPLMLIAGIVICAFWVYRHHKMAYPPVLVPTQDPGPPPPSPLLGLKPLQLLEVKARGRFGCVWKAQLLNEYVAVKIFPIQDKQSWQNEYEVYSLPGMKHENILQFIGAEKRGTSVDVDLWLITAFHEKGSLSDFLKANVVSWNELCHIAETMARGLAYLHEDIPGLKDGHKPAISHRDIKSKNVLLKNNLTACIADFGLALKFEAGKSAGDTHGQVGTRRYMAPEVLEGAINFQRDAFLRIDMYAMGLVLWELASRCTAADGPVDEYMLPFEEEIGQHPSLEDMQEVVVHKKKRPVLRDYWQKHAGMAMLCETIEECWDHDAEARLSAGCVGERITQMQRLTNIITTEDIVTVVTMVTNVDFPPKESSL", "method_in_brief": "as §1"}, "FLT1": {"target": "FLT1 (Homo sapiens, UniProt P17948)", "sequence (P17948 whole entry)": "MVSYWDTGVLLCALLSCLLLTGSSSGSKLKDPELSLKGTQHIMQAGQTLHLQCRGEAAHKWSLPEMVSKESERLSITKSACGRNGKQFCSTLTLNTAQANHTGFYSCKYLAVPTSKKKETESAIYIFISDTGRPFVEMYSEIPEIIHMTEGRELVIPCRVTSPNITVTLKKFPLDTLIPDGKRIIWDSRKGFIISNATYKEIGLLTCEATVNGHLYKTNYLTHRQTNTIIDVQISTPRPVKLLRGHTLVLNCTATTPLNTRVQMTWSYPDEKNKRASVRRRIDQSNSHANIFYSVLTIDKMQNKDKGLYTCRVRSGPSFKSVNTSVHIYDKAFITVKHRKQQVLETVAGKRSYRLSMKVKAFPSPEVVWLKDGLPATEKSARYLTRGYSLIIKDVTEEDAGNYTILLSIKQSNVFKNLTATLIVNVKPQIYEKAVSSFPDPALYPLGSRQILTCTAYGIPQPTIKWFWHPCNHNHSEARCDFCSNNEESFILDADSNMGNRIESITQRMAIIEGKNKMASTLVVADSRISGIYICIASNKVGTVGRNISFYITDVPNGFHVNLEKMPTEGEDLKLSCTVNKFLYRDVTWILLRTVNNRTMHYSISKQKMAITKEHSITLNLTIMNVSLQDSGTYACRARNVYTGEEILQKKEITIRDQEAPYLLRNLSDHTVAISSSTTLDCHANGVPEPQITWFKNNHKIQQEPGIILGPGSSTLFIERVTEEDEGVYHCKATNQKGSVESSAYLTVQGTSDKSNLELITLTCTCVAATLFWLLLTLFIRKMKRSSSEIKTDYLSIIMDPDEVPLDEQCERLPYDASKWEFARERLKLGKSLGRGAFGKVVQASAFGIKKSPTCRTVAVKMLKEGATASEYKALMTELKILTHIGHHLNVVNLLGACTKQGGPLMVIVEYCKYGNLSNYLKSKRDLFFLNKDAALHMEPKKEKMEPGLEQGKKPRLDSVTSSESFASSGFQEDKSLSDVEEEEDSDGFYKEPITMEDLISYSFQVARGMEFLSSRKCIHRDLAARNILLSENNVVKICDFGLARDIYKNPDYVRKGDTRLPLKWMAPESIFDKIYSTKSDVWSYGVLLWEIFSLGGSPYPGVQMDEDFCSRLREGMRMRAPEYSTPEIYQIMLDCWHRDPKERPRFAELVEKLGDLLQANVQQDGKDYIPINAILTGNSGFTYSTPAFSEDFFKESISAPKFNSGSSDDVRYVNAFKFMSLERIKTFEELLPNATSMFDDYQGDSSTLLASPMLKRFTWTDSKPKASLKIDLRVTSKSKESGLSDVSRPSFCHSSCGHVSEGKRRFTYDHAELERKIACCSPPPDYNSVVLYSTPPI", "method_in_brief": "as §1"}, "CSNK1A1L": {"target": "CSNK1A1L (Homo sapiens, UniProt Q8N752)", "sequence (Q8N752 whole entry)": "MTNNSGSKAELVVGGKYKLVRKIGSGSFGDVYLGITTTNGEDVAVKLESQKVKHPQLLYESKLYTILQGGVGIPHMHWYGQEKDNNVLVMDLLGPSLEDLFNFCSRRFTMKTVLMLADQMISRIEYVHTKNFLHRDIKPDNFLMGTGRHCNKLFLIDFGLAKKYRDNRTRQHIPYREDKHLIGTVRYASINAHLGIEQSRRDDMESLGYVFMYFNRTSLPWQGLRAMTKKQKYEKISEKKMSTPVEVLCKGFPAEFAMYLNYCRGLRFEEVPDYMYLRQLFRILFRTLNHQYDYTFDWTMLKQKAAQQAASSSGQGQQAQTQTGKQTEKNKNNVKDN", "method_in_brief": "as §1"}, "FRK": {"target": "FRK (Homo sapiens, UniProt P42685)", "method_in_brief": "as §1"}, "MTOR": {"target": "MTOR (Homo sapiens, UniProt P42345)", "method_in_brief": "as §1"}, "PRKCE": {"target": "PRKCE (Homo sapiens, UniProt Q02156)", "method_in_brief": "as §1"}, "INSRR": {"target": "INSRR (Homo sapiens, UniProt P14616)", "method_in_brief": "as §1"}, "MAP4K2": {"target": "MAP4K2 (Homo sapiens, UniProt Q12851)", "method_in_brief": "as §1"}, "MRCKB": {"target": "T7, MRCKB (Homo sapiens, UniProt Q9Y5S2)", "T7 construct": "gene CDC42BPB", "method_in_brief": "as §1"}}, "note": "Read-outs that look alike come from different tables or passages of the source.", "data": [{"smiles": "Cc1ncccc1Oc1sc(C(N)=O)c2c1-c1c(cnn1C)CC2", "note": "[T-474, 1-methyl-8-((2-methylpyridin-3-yl)oxy)-4,5-dihydro-1H-thieno[3,4-g]indazole-6-carboxamide]", "values": [{"measurement": "remaining binding at 0.3 µM", "setting": "CDC2L2", "result": 98, "unit": "%"}, {"measurement": "remaining binding at 0.3 µM", "setting": "HIPK3", "result": 79, "unit": "%"}, {"measurement": "remaining binding at 0.3 µM", "setting": "p38-delta", "result": 96, "unit": "%"}, {"measurement": "remaining binding at 0.3 µM", "setting": "CSNK2A2", "result": 100, "unit": "%"}, {"measurement": "remaining binding at 0.3 µM", "setting": "PFPK5(P.falciparum)", "result": 95, "unit": "%"}, {"measurement": "remaining binding at 0.3 µM", "setting": "DLK", "result": 94, "unit": "%"}, {"measurement": "remaining binding at 0.3 µM", "setting": "MEK1", "result": 100, "unit": "%"}, {"measurement": "remaining binding at 0.3 µM", "setting": "BUB1", "result": 100, "unit": "%"}, {"measurement": "remaining binding at 0.3 µM", "setting": "SBK1", "result": 91, "unit": "%"}, {"measurement": "remaining binding at 0.3 µM", "setting": "CSNK1E", "result": 76, "unit": "%"}, {"measurement": "remaining binding at 0.3 µM", "setting": "SgK110", "result": 57, "unit": "%"}, {"measurement": "remaining binding at 0.3 µM", "setting": "PRKD2", "result": 100, "unit": "%"}, {"measurement": "remaining binding at 0.3 µM", "setting": "LTK", "result": 100, "unit": "%"}, {"measurement": "remaining binding at 0.3 µM", "setting": "ACVR2A", "result": 87, "unit": "%"}, {"measurement": "remaining binding at 0.3 µM", "setting": "FLT1", "result": 100, "unit": "%"}, {"measurement": "remaining binding at 0.3 µM", "setting": "CSNK1A1L", "result": 100, "unit": "%"}, {"measurement": "remaining binding at 0.3 µM", "setting": "FRK", "result": 97, "unit": "%"}, {"measurement": "remaining binding at 0.3 µM", "setting": "MTOR", "result": 82, "unit": "%"}, {"measurement": "remaining binding at 0.3 µM", "setting": "PRKCE", "result": 35, "unit": "%"}, {"measurement": "remaining binding at 0.3 µM", "setting": "INSRR", "result": 100, "unit": "%"}, {"measurement": "remaining binding at 0.3 µM", "setting": "MAP4K2", "result": 100, "unit": "%"}, {"measurement": "remaining binding at 0.3 µM", "setting": "MRCKB", "result": 100, "unit": "%"}]}, {"smiles": "O=C(/C=C/c1cnccc1-c1ccc(F)cc1)Nc1ccc(CCc2nnco2)cc1", "note": "[T-418, (2E)-3-(4-(4-fluorophenyl)pyridin-3-yl)-N-(4-(2-(1,3,4-oxadiazol-2-yl)ethyl)phenyl)acrylamide]", "values": [{"measurement": "remaining binding at 0.3 µM", "setting": "CDC2L2; sheet T-418", "result": 100, "unit": "%"}, {"measurement": "remaining binding at 0.3 µM", "setting": "HIPK3; sheet T-418", "result": 64, "unit": "%"}, {"measurement": "remaining binding at 0.3 µM", "setting": "p38-delta; sheet T-418", "result": 100, "unit": "%"}, {"measurement": "remaining binding at 0.3 µM", "setting": "CSNK2A2; sheet T-418", "result": 100, "unit": "%"}, {"measurement": "remaining binding at 0.3 µM", "setting": "PFPK5(P.falciparum); sheet T-418", "result": 76, "unit": "%"}, {"measurement": "remaining binding at 0.3 µM", "setting": "DLK; sheet T-418", "result": 91, "unit": "%"}, {"measurement": "remaining binding at 0.3 µM", "setting": "MEK1; sheet T-418", "result": 100, "unit": "%"}, {"measurement": "remaining binding at 0.3 µM", "setting": "BUB1; sheet T-418", "result": 100, "unit": "%"}, {"measurement": "remaining binding at 0.3 µM", "setting": "SBK1; sheet T-418", "result": 73, "unit": "%"}, {"measurement": "remaining binding at 0.3 µM", "setting": "CSNK1E; sheet T-418", "result": 89, "unit": "%"}, {"measurement": "remaining binding at 0.3 µM", "setting": "SgK110; sheet T-418", "result": 73, "unit": "%"}, {"measurement": "remaining binding at 0.3 µM", "setting": "PRKD2; sheet T-418", "result": 76, "unit": "%"}, {"measurement": "remaining binding at 0.3 µM", "setting": "LTK; sheet T-418", "result": 100, "unit": "%"}, {"measurement": "remaining binding at 0.3 µM", "setting": "ACVR2A; sheet T-418", "result": 91, "unit": "%"}, {"measurement": "remaining binding at 0.3 µM", "setting": "FLT1; sheet T-418", "result": 100, "unit": "%"}, {"measurement": "remaining binding at 0.3 µM", "setting": "CSNK1A1L; sheet T-418", "result": 92, "unit": "%"}, {"measurement": "remaining binding at 0.3 µM", "setting": "FRK; sheet T-418", "result": 97, "unit": "%"}, {"measurement": "remaining binding at 0.3 µM", "setting": "MTOR; sheet T-418", "result": 100, "unit": "%"}, {"measurement": "remaining binding at 0.3 µM", "setting": "PRKCE; sheet T-418", "result": 39, "unit": "%"}, {"measurement": "remaining binding at 0.3 µM", "setting": "INSRR; sheet T-418", "result": 100, "unit": "%"}, {"measurement": "remaining binding at 0.3 µM", "setting": "MAP4K2; sheet T-418", "result": 100, "unit": "%"}, {"measurement": "remaining binding at 0.3 µM", "setting": "MRCKB; sheet T-418", "result": 100, "unit": "%"}]}]}
